Measurements published in ChEMBL document CHEMBL5543134, “Channeling Nicotinamide Phosphoribosyltransferase (NAMPT) to Address Life and Death” (J Med Chem, 2024).
pIC50: −log10 of the molar value. One block for each molecule: values may come before it.

What was measured:
A2780 = assay: cells; conditions: Homo sapiens, A2780, 72 h
HCT-116 [1] = assay: Antitumor activity against human HCT-116 cells assessed as decrease in intracellular NAD level at 30 uM measured after 12 to 24 hrs by absorbance based assay; format: functional; design: scale not given: the % may be the effect or the level left; conditions: time 12-24 hrs
[2] = biological target: Nicotinamide phosphoribosyltransferase (Mus musculus, UniProt Q99KQ4); assay: Inhibition of N-terminal His-tagged mouse NAMPT transformed in Escherichia coli Rosetta cells
Nicotinamide phosphoribosyltransferase (Mus musculus, UniProt Q99KQ4), sequence (Q99KQ4 whole entry): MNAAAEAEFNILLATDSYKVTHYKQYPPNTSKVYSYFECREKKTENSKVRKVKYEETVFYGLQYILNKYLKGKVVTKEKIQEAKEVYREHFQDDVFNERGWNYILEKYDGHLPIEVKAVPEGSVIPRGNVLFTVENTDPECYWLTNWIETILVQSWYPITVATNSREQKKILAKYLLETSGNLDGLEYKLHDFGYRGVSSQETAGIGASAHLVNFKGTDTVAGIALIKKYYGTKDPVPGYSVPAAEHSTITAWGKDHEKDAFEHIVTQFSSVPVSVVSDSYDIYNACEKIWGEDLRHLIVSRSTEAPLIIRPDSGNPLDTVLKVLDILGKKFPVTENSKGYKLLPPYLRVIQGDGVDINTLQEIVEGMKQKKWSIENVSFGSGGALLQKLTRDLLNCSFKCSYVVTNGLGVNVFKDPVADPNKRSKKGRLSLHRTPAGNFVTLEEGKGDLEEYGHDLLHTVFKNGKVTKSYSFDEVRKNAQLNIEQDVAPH

[3] = Cmax in ICR mouse at 10 mg/kg, iv by LC-MS/MS analysis; format: ADME, organism-based; conditions: in vivo
[4] = Cmax in Sprague-Dawley rat plasma at 60 mg/kg, ip measured up to 48 hrs by LC-MS/MS analysis; format: ADME, organism-based
[5] = biological target: Nicotinamide phosphoribosyltransferase (Homo sapiens, UniProt P43490); assay: Inhibition of NAMPT (unknown origin) using NAM and PRPP as substrates incubated for 2 hrs in presence of ATP by fluorimetric plate reader assay
Nicotinamide phosphoribosyltransferase (Homo sapiens, UniProt P43490), sequence (P43490 whole entry): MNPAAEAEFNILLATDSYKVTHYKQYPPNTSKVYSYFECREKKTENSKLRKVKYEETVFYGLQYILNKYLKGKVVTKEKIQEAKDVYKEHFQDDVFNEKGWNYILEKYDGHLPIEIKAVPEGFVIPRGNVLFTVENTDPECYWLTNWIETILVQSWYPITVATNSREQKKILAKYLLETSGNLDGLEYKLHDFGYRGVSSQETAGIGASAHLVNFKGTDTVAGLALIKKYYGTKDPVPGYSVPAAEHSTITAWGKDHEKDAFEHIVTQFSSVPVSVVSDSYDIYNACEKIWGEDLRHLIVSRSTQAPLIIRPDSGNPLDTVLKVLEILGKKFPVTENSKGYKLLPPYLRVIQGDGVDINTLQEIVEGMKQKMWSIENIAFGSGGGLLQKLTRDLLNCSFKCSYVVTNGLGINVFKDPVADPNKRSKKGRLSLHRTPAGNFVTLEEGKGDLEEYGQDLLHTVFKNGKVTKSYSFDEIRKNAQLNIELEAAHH

HCT-116 [6] = assay: cells; conditions: Homo sapiens, HCT-116, 48 h

Structure (SMILES): CCOC(=O)c1ccc(NC(=O)NCc2ccncc2)cc1
pIC50 (A2780): 6.49

Structure (SMILES): Nc1cc(F)ccc1NC(=O)c1ccc(CNC(=O)/C=C/c2cccnc2)cc1 [TUCIDINOSTAT]
Activity (HCT-116 [1]): 50%

pIC50 [2]: 5.83
Structure (SMILES): CCN(CC)C(=O)c1noc2cc(NC(=O)NCc3cnco3)ccc12

Structure (SMILES): CCOC(=O)c1ccc(NC(=S)NCc2ccncc2)cc1
pIC50 (A2780): 6.00

Cmax [3]: 14 µM | Cmax [4]: 6.7 µM
Structure (SMILES): O=C(/C=C/c1cccnc1)NCCCCC1CCN(C(=O)c2ccccc2)CC1 [DAPORINAD]

pIC50 [5]: 6.55
Structure (SMILES): O=C(NCc1ccncc1)Nc1ccc(S(=O)(=O)N2C[C@H]3CC[C@@H](C2)O3)cc1

Structure (SMILES): CCN(CC)S(=O)(=O)c1ccc(NC(=O)NCc2ccncc2)cc1
pIC50 (A2780): 6.44

Structure (SMILES): O=S(=O)(c1ccc(NC(=S)NCc2ccncc2)cc1)N1CCCCC1
pIC50 (A2780): < 8.00

Structure (SMILES): C#CCN(Cc1cc2c(=O)n(C)c(CN3CCN(CCN)CC3)nc2cc1Cl)c1ccc(C(=O)NCc2cccnc2)cc1
pIC50 (HCT-116 [6]): 9.17

Structure (SMILES): Cn1nccc1-c1nc2ccc(NC(=O)NCc3ccncc3)cn2n1
pIC50 (A2780): 6.80
